Data reported in patent US9527807B2, “Sulfonamide derivative and use thereof” (Takeda Pharmaceutical Company Limited, priority 2011, dated 2016).

Molecular target: T1, AMPA receptor (human GluR1 flip/stargazin expressed in CHO-K1 cells) (Homo sapiens, UniProt P42261)
T1 construct: expressed in transfected cells; host or cells: CHO-K1
Assay: AMPA receptor function enhancing activity using calcium influx as index
Format: cell-based
Conditions: change in fluorescence level in 3 min, 100% = 3 mM glutamic acid + 300 μM cyclothiazide, 0% = 3 mM glutamic acid only
From the text: Human GluR1 flip cDNA was amplified by PCR using forward primer […] (SEQ ID NO: 1) and reverse primer […] (SEQ ID NO: 2) artificially synthesized using human brain-derived cDNA (BD Bio science) as a template. The amplified product was digested with restriction enzymes EcoRI, NotI (TAKARA SHUZO CO. LTD.), and incorporated into the same site of pcDNA3.1(+) (Invitrogen) to construct pcDNA3.1(+)/human GluR1 flip gene. Human stargazin cDNA was amplified by PCR using forward primer […] (SEQ ID NO: 3) and reverse primer. […] (SEQ ID NO: 4) artificially synthesized using human hippocampus cDNA as a template. The amplified product was digested with restriction enzymes XhoI, BamHI (TAKARA SHUZO CO. LTD.), and incorporated into the same site of pcDNA3.1(−) (Invitrogen) to construct pcDNA3.1 Zeo(−)/human stargazin gene.
(2) Construction of GluR1 Flip/Stargazin Expressing Cell
CHO-K1 cells passaged in a culture medium (Ham's F12 medium (Invitrogen) added with 10% inactivated fetal bovine serum (Morgate) and penicillin, streptomycin (Invitrogen)) were detached with 0.05% trypsin, 0.53 mM EDTA (Invitrogen) diluted with D-PBS(−). The detached cells were suspended in a culture medium, and recovered by a centrifugation operation at 1,000 rpm. The recovered cells were suspended again in D-PBS(−), and added to a 0.4 cm electroporation cuvette (BioRad). pcDNA3.1(+)/human GluR1 flip gene (5 μg) and pcDNA3.1 Zeo(−)/human stargazin gene (15 μg) were added, and the mixture was introduced into CHO-K1 cells using Gene Pulser II (BioRad) under the conditions of 950 μFd, […]. The introduced cells were cultured overnight in a culture medium and, the next day, plated in a 96 well plate at 250 cells/well using a selection medium (culture medium added with Zeocin (Invitrogen) to 250 μg/mL). Clones showing drug resistance were selected, and GluR1 flip/stargazin expressing clones were selected by an assay method using calcium influx as an index as shown below.
(3) Measurement Method of AMPA Receptor Function Enhancing Activity of Compound Using Calcium Influx as Index
CHO-K1/GluR1 flip/stargazin expressing cells were plated on a 384 well black transparent bottom plate (FMAT4307723) at 0.5×10^4 cells/well, and cultured in a 37° C., CO2 incubator (SANYO Electric Co., Ltd.) for 2 days. The medium in the cell plate was removed, and a calcium indicator (Calcium 4 Assay Kit, Molecular. Devices) containing 1.25 mM probenecid (Invitrogen) was added at 25 μL/well and the well was left standing in 37° C., CO2 incubator for 1 hr. The cell plate was set in FLITRtetra (Molecular Devices), a mixture (12.5 μL) of 9 mM glutamic acid diluted with assay buffer B (HBSS (Invitrogen), 0.1% BSA, 10 mM HEPES) and a test compound was added, and the amount of change in fluorescence level in 3 min was measured. In the definition here, the amount of change in fluorescence level of well added with glutamic acid at final concentration 3 mM and 300 μM cyclothiazide (TOCRIS) is 100%, the amount of change in fluorescence level of well added only with glutamic acid at final concentration 3 mM is 0%, and the compound activity was calculated according to the following formula. activity (%)=(X−C)/(T−C)×100 T: amount of change in fluorescence level of well added with glutamic acid at final concentration 3 mM and 300 μM cyclothiazide C: amount of change in fluorescence level of well added only with glutamic acid at final concentration 3 mM X: amount of change in fluorescence level of well added with to test compound

T1 sequence (P42261 19-906 isoform P42261-2 limits assumed): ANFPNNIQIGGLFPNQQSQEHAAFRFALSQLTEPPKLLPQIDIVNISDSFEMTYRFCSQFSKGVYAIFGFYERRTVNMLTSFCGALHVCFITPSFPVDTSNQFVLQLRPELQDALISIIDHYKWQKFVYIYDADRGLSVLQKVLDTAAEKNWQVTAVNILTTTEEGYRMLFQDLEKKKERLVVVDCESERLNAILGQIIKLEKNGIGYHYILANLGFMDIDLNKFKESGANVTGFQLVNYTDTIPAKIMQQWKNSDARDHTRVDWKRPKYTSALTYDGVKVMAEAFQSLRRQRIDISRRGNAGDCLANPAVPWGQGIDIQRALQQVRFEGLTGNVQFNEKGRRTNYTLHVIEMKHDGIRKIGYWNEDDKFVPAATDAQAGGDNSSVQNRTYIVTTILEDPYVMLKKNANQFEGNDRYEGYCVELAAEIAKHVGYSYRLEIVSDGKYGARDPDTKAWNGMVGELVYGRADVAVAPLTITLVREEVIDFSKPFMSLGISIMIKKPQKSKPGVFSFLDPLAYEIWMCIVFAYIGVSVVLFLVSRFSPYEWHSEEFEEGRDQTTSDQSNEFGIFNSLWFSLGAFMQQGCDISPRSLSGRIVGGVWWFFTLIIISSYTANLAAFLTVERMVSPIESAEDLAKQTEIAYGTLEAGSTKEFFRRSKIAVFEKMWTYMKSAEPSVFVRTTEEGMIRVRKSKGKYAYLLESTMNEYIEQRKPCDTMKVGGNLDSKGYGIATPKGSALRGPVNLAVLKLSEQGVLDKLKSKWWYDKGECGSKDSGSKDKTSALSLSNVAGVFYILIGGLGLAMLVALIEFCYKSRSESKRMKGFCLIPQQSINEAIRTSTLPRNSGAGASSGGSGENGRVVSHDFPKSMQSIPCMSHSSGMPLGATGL
T1 sequence (Q9Y698 whole entry partner): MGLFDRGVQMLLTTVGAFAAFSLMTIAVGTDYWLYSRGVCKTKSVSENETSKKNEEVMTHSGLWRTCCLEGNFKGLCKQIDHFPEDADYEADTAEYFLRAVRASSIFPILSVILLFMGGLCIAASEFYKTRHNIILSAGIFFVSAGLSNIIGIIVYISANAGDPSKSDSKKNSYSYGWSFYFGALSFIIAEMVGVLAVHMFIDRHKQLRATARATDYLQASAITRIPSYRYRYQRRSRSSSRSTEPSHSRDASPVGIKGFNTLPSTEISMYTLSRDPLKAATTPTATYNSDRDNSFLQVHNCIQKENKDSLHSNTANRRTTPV

O=S(=O)(N[C@H]1CCOC[C@@H]1COc1ccc(-c2ncc(Cl)cc2F)cc1)C1CC1 [Example 256, N-[(3R,4S)-3-{[4-(5-chloro-3-fluoropyridin-2-yl)phenoxy]methyl}tetrahydro-2H-pyran-4-yl]cyclopropanesulfonamide]
activity (%): 91%

CS(=O)(=O)N[C@H]1CCC(F)(F)C[C@@H]1COc1ccc(-c2ccc(C#N)cn2)cc1 [Example 268, N-[(1S,2S)-2-{[4-(5-cyanopyridin-2-yl)phenoxy]methyl}-4,4-difluorocyclohexyl]methanesulfonamide]
activity (%): 101%

CCS(=O)(=O)N[C@H]1CCCC[C@@H]1COc1ccc(-n2cccn2)cc1 (relative stereo) [Example 60, trans-N-[2-{[4-(1H-pyrazol-1-yl)phenoxy]methyl}cyclohexyl]ethane-sulfonamide]
activity (%): 80%

CS(=O)(=O)N[C@H]1COCC[C@@H]1COc1ccc(-c2ncc(Cl)cn2)cc1 [Example 284, N-[(3R,4S)-4-{[4-(5-chloropyrimidin-2-yl)phenoxy]methyl}tetrahydro-2H-pyran-3-yl]methanesulfonamide]
activity (%): 92%

CCS(=O)(=O)N[C@H]1CCOC[C@@H]1COc1ccc(-c2ccccn2)cc1 (relative stereo) [Example 137, trans-N-{3-[(4-pyridin-2-ylphenoxy)methyl]tetrahydro-2H-pyran-4-yl}ethanesulfonamide]
activity (%): 91%

CS(=O)(=O)N[C@H]1CCSC[C@@H]1COc1ccc(C2CCOCC2)cc1 [Example 519, N-((3S,4S)-3-((4-(tetrahydro-2H-pyran-4-yl)phenoxy)methyl)tetrahydro-2H-thiopyran-4-yl)methanesulfonamide]
activity (%): 88%

CCS(=O)(=O)N[C@H]1CCOC[C@@H]1COc1ccc(-n2nccc2C)cc1 (racemic) [Example 431, N-[(3RS,4SR)-3-{[4-(5-methyl-1H-pyrazol-1-yl)phenoxy]methyl}tetrahydro-2H-pyran-4-yl]ethanesulfonamide]
activity (%): 66%

O=S(=O)(N[C@H]1CCCO[C@@H]1COc1ccc(-c2ccc(F)cn2)cc1)C1CC1 [Example 282, 1,5-anhydro-4-[(cyclopropylsulfonyl)amino]-2,3,4-trideoxy-6-β-[4-(5-fluoropyridin-2-yl)phenyl]-D-erythro-hexitol]
activity (%): 96%

CCS(=O)(=O)N[C@H]1CCOC[C@@H]1COc1ccc(-c2cccnc2)cc1 (relative stereo) [Example 138, trans-N-{3-[(4-pyridin-3-ylphenoxy)methyl]tetrahydro-2H-pyran-4-yl}ethanesulfonamide]
activity (%): 95%

CS(=O)(=O)N[C@H]1CCC(F)(F)C[C@@H]1COc1ccc(-c2ncc(C#N)cc2F)cc1 [Example 215, N-[(1S,2S)-2-{[4-(5-cyano-3-fluoropyridin-2-yl)phenoxy]methyl}-4,4-difluorocyclohexyl]methanesulfonamide]
activity (%): 101%

CCS(=O)(=O)N[C@H]1CCOC[C@@H]1COc1ccc(C(C)C)cc1 (relative stereo) [Example 34, trans-N-{3-[(4-isopropylphenoxy)methyl]tetrahydro-2H-pyran-4-yl}ethanesulfonamide]
activity (%): 77%

CCS(=O)(=O)N[C@H]1CCN(C(C)=O)C[C@@H]1COc1ccc(-n2cccn2)cc1 (relative stereo) [Example 3, trans-N-[1-acetyl-3-{[4-(1H-pyrazol-1-yl)phenoxy]methyl}piperidin-4-yl]ethanesulfonamide]
activity (%): 57%

CCS(=O)(=O)N[C@H]1CCC[C@@H]1COc1ccc(C(C)C)cc1 (relative stereo) [Example 15, trans-N-[2-{[4-(1-methylethyl)phenoxy]methyl}cyclopentyl]ethanesulfonamide]
activity (%): 88%
